From patent EP0418990A2, “13-Bromo and 13,14-dibromo ergoline, their preparation and their use” (SCHERING AKTIENGESELLSCHAFT, priority 1989, dated 1991)

System: Ratten
Assay: Automatic recording of stereotypies in rats (Horowski method), dopamine-agonist effect
Assay type: in vivo, männliche Wistar-Ratten
Details: 60 min after treatment
Text: Die dopaminagonistische Wirkung wurde mit Hilfe der von Horowski beschriebenen Methode der automatischen Registrierung von Stereotypien an Ratten bestimmt (Arzneim. Forsch. 12, 2281-2286, 1978): Unmittelbar nach intraperitonealer Prüfsubstanz- bzw. Vehikelverabreichung werden männliche Wistar-Ratten (90-120 g) einzeln in Zwangskäfige aus Acrylglas gesetzt. Über ein vor dem Kopf der Tiere angebrachtes elektrodynamisches Aufnahmesystem wird die Zahl der Kontakte an einem stählernen Becher mit einem zentralen Metallstab als Folge der stereotypen Kau-, Leck- und Nagebewegungen während 60 Minuten registriert. Die Mittelwerte ± S.E.M. der Anzahl der Kontakte während 60 Minuten für die verschiedenen Behandlungsgruppen, die mit jeweils 12 Tieren besetzt sind, werden berechnet und die Signifikanz der Unterschiede zwischen den Mittelwerten der verschiedenen Prüfsubstanzdosen im Vergleich zur Vehikel-behandelten Kontrollgruppe mit Hilfe der einfachen Varianzanalyse in Verbindung mit dem Dunnett-Test ermittelt.

CCN(CC)C(=O)N[C@H]1C[C@@H]2c3cc(Br)cc4[nH]c(C)c(c34)C[C@H]2N(CC)C1 [CH2CH3, 3-(13-Brom-6-ethyl-2-methyl-8α-ergolinyl)-1,1-diethyl-harnstoff]
Stereotypien(counts pro 60 Minuten) (Mittelwert ± S.E.M.) (dose 0.025 mg/kg intraperitoneal, n=12, vehicle control 2137 ± 849): 1943 ± 472 counts pro 60 Minuten
Stereotypien(counts pro 60 Minuten) (Mittelwert ± S.E.M.) (dose 0.1 mg/kg intraperitoneal, n=12, vehicle control 2137 ± 849): 2470 ± 548 counts pro 60 Minuten
Stereotypien(counts pro 60 Minuten) (Mittelwert ± S.E.M.) (dose 0.39 mg/kg intraperitoneal, n=12, xx: p<0.01 vs. control, vehicle control 2137 ± 849): 7499 ± 1342xx counts pro 60 Minuten
Stereotypien(counts pro 60 Minuten) (Mittelwert ± S.E.M.) (dose 1.56 mg/kg intraperitoneal, n=12, xx: p<0.01 vs. control, vehicle control 2137 ± 849): 8066 ± 1248xx counts pro 60 Minuten
Stereotypien(counts pro 60 Minuten) (Mittelwert ± S.E.M.) (dose 6.25 mg/kg intraperitoneal, n=12, xx: p<0.01 vs. control, vehicle control 2137 ± 849): 7381 ±1336xx counts pro 60 Minuten
